Assay results reported in ChEMBL document CHEMBL1125471, “Isopropyl and phenyl esters of 3 beta-(4-substituted phenyl)tropan-2 beta-carboxylic acids. Potent and selective compounds for the dopamine transporter” (J Med Chem, 1992).

Legend:
[1] = biological target: T1, Sodium-dependent dopamine transporter (Rattus norvegicus, UniProt P23977); assay: Inhibition of [3H]WIN-35428l binding to Dopamine transporter
[2] = biological target: Sodium-dependent serotonin transporter (Rattus norvegicus, UniProt P31652); assay: Inhibition of [3H]paroxetine binding to Serotonin transporter
Sequence of Sodium-dependent serotonin transporter (P31652 whole entry): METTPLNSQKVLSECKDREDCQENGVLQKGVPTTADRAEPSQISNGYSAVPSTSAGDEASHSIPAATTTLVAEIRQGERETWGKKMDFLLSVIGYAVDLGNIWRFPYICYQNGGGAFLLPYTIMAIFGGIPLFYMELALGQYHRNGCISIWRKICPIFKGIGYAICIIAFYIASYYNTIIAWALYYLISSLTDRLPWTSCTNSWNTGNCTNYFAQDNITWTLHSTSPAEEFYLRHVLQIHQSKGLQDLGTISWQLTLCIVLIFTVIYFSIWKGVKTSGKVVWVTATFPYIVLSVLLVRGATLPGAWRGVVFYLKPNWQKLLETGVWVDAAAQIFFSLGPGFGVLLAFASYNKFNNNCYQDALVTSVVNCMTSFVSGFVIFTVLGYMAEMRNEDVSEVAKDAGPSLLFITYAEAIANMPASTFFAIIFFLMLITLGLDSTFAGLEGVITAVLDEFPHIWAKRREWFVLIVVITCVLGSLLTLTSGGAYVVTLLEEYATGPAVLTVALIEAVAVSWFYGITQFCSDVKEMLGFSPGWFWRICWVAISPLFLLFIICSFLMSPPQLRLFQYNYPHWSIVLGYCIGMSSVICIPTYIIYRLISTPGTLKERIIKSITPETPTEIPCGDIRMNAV

[3] = biological target: Sodium-dependent serotonin transporter (Rattus norvegicus) (UniProt P31652); assay: Ratio of IC50(5-HT) to the IC50(DA)
Sequence of Sodium-dependent serotonin transporter (Rattus norvegicus) (P31652 whole entry): as above

[4] = biological target: T2, Norepinephrine transporter (Rattus norvegicus, UniProt Q9WTR4); assay: Inhibition of [3H]mazindol binding to Norepinephrine transporter
T2 sequence (Q9WTR4 whole entry): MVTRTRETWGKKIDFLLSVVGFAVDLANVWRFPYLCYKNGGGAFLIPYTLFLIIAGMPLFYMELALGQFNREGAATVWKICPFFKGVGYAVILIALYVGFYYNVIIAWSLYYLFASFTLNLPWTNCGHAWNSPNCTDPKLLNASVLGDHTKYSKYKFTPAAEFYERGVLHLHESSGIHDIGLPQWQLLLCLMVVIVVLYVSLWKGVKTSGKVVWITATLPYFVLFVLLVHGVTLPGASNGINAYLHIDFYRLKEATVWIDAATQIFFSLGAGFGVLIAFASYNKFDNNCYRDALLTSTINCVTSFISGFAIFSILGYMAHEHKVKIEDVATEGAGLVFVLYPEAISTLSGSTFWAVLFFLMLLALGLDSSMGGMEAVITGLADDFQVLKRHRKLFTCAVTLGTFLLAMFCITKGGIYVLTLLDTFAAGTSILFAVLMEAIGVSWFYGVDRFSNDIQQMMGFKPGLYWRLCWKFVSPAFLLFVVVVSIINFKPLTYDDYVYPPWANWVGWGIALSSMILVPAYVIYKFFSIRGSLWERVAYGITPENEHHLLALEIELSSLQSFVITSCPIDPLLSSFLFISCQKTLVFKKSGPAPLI

[5] = biological target: T2, Norepinephrine transporter; assay: Compound was evaluated for the inhibition of [3H]mazindol binding to norepinephrine (NE) transporter
[6] = biological target: T1, Sodium-dependent dopamine transporter; assay: Compound was evaluated for the inhibition of [3H]WIN-35428l binding to dopamine transporter

T1 sequence (P23977 whole entry): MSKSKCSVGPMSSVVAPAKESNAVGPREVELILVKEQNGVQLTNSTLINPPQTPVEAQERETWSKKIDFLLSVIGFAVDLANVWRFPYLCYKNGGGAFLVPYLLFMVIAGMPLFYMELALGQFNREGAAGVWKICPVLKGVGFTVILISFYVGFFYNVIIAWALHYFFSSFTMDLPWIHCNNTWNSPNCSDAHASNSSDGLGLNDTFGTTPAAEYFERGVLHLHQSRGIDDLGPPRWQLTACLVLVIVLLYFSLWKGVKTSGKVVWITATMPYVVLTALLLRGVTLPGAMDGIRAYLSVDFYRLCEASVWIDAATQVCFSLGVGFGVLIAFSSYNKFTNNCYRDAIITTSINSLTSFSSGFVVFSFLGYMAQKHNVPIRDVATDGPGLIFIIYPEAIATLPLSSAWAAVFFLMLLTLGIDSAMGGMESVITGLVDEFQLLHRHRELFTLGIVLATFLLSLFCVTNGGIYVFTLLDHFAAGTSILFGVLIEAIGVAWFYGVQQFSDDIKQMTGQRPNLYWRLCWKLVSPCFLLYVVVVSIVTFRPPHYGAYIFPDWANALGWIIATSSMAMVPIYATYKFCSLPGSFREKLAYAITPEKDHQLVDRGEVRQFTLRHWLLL

SMILES	IC50 [1] [nM]	IC50 [2] [nM]	Ratio [3]	IC50 [4] [µM]	IC50 [5] [µM]	IC50 [6] [nM]
COC(=O)[C@@H]1C2CC[C@H](C[C@@H]1c1ccc(C)cc1)N2C	1.71					
Cc1ccc([C@H]2C[C@H]3CCC([C@H]2C(=O)OC(C)C)N3C)cc1	5.29	6410	1210	4.3		
CC(C)OC(=O)[C@@H]1C2CC[C@H](C[C@@H]1OC(=O)c1ccccc1)N2C		25700	122	23.5		
COC(=O)[C@H]1[C@@H](c2ccc(F)cc2)C[C@H]2CC[C@H]1N2C		759		1.24		
Cc1ccc([C@H]2C[C@H]3CCC([C@H]2C(=O)Oc2ccccc2)N3C)cc1	3.27	29700	9070	10.8		
CC(C)OC(=O)[C@@H]1C2CC[C@H](C[C@@H]1c1ccc(Cl)cc1)N2C	1.41	1400	996	2.15		
CCOC(=O)[C@@H]1C2CC[C@H](C[C@@H]1OC(=O)c1ccccc1)N2C	130	9060	70	26.8		
CCCOC(=O)[C@@H]1C2CC[C@H](C[C@@H]1OC(=O)c1ccccc1)N2C		4130			15.8	191
COC(=O)C1C2CC[C@H](C[C@@H]1c1ccc(Cl)cc1)N2C (some centres undefined)		44.5				
CN1C2CC[C@@H]1C[C@H](c1ccc(I)cc1)[C@@H]2C(=O)Oc1ccccc1	1.51	326	216	18.3		
CN1C2CC[C@@H]1C[C@H](OC(=O)c1ccccc1)[C@@H]2C(=O)Oc1ccccc1	112	57400	512	37.4		
COC(=O)[C@@H]1C2CC[C@H](C[C@@H]1c1ccccc1)N2C				2.08		
COC(=O)[C@@H]1C2CC[C@H](C[C@@H]1c1ccc(I)cc1)N2C	1.26	4.2	3.3	0.0346		
CN1C2CC[C@@H]1C[C@H](c1ccc(Cl)cc1)[C@@H]2C(=O)Oc1ccccc1	1.99	2340	1170	4.57		
CC(C)OC(=O)[C@@H]1C2CC[C@H](C[C@@H]1c1ccc(I)cc1)N2C	0.43	310	721	0.864		
CN1C2CC[C@@H]1C[C@H](OC(=O)c1ccccc1)[C@@H]2C(=O)OCCCc1ccccc1		374			25.1	
